Assay results taken from patent publication US20240325531A1, “CAR T/NK-CELLS FOR USE IN THE TREATMENT OF INVASIVE FUNGAL INFECTIONS” (UNIVERSITAT DE BARCELONA, priority 2021, published 2024).

Legend:
[1] = system: Fusarium petroliphilum; test: Treatment of a patient with fusariosis (compassionate, first-in-human use); type: in vivo; conditions: one patient; liposomal amphotericin-B, terbinafine and voriconazole given together, before cell therapy
[2] = system: Fusarium petroliphilum; test: Antifungal resistance tests (MIC) on the patient's mold; type: cell-based; conditions: Fusarium petroliphilum from the patient's skin biopsy; no clinical breakpoints established; read-out: minimum inhibitory concentrations (MIC)
Procedure: The patient was admitted to the hospital for fever, muscle pain, and polytopic erythematous plaques/nodules on the trunk and extremities, some of them with central pustules. […] Blood cultures were negative. Galactomannan and β-D-glucan were negative. […] Bronchoscopy was performed but all results were negative.

[3] = system: acute panmyelosis with myelofibrosis; test: Patient's earlier treatment of relapsed haematological disease; type: in vivo, human; conditions: venetoclax plus azacytidine, after the first two cycles, one patient

Row | MIC [2] [µg/mL] | Structure (SMILES) | clinical course under antifungal drugs [1] | response of haematological disease [3]
1 | > 8 | C[C@@H](c1ncncc1F)[C@](O)(Cn1cncn1)c1ccc(F)cc1F [voriconazole] | remained febrile, with appearance of new skin lesions and mild worsening of the chest CT images | –
2 | > 8 | C[C@@H](c1nc(-c2ccc(C#N)cc2)cs1)[C@](O)(Cn1cncn1)c1cc(F)ccc1F [isavuconazole] | – | –

The next lines start with the compound.

Row | Structure (SMILES) | MIC [2] [µg/mL] | clinical course under antifungal drugs [1] | response of haematological disease [3]
3 | CN(C/C=C/C#CC(C)(C)C)Cc1cccc2ccccc12 [terbinafine] | – | remained febrile, with appearance of new skin lesions and mild worsening of the chest CT images | –
4 | Nc1ncn([C@@H]2O[C@H](CO)[C@@H](O)[C@H]2O)c(=O)n1 [azacytidine] | – | – | partial response
5 | CC[C@@H]([C@H](C)O)n1ncn(-c2ccc(N3CCN(c4ccc(OC[C@@H]5CO[C@@](Cn6cncn6)(c6ccc(F)cc6F)C5)cc4)CC3)cc2)c1=O [posaconazole] | > 8 | – | –
